Measured values as given in the NIST ThermoML archive (doi:10.1016/j.fluid.2012.12.008).

Details: Liquid; for mass density: Vibrating tube method; for thermal conductivity: Hot wire method

CCCCCC[n+]1ccccc1.F[B-](F)(F)F [1-hexylpyridinium tetrafluoroborate]
Details | mass density, 293.15 K [kg/m3] | mass density, 303.15 K [kg/m3] | mass density, 313.15 K [kg/m3] | mass density, 323.15 K [kg/m3] | mass density, 333.15 K [kg/m3] | mass density, 343.15 K [kg/m3] | mass density, 353.15 K [kg/m3] | thermal conductivity, 294.2 K [W/m/K] | thermal conductivity, 314.3 K [W/m/K] | thermal conductivity, 334.3 K [W/m/K]
100 kPa | 1157 | 1150.3 | 1143.5 | 1137 | 1130 | 1123.4 | 1116.8 | 0.163 | 0.163 | 0.161
5000 kPa | 1159.5 | 1152.9 | 1146.1 | 1139.7 | 1132.7 | 1126 | 1119.5 | – | – | –
10000 kPa | 1161.8 | 1155.3 | 1148.7 | 1142.2 | 1135.2 | 1128.7 | 1122.3 | 0.165 | 0.163 | 0.162
15000 kPa | 1164.1 | 1157.6 | 1151.1 | 1144.5 | 1137.8 | 1131.2 | 1125 | – | – | –
20000 kPa | 1166.5 | 1159.9 | 1153.4 | 1146.9 | 1140.3 | 1133.8 | 1127.6 | 0.166 | 0.164 | 0.163

CCCC[n+]1ccccc1.F[B-](F)(F)F [1-butylpyridinium tetrafluoroborate]
Details | mass density, 293.15 K [kg/m3] | mass density, 303.15 K [kg/m3] | mass density, 313.15 K [kg/m3] | mass density, 323.15 K [kg/m3] | mass density, 333.15 K [kg/m3] | mass density, 343.15 K [kg/m3] | mass density, 353.15 K [kg/m3] | thermal conductivity, 294.2 K [W/m/K] | thermal conductivity, 314.3 K [W/m/K] | thermal conductivity, 334.3 K [W/m/K]
100 kPa | 1216.5 | 1209.5 | 1202.6 | 1196 | 1188.9 | 1182 | 1175.4 | 0.171 | 0.17 | 0.169
5000 kPa | 1219 | 1211.9 | 1205.1 | 1198.5 | 1191.4 | 1184.5 | 1177.9 | – | – | –
10000 kPa | 1221.1 | 1214.3 | 1207.6 | 1200.9 | 1193.9 | 1187 | 1180.6 | 0.171 | 0.171 | 0.171
15000 kPa | 1223.4 | 1216.4 | 1209.9 | 1203.2 | 1196.4 | 1189.5 | 1183.3 | – | – | –
20000 kPa | 1225.5 | 1218.7 | 1212 | 1205.5 | 1198.8 | 1191.9 | 1185.8 | 0.173 | 0.173 | 0.172

CCCCCCCC[n+]1ccccc1.F[B-](F)(F)F [1-octylpyridinium tetrafluoroborate]
Details | mass density, 293.15 K [kg/m3] | mass density, 303.15 K [kg/m3] | mass density, 313.15 K [kg/m3] | mass density, 323.15 K [kg/m3] | mass density, 333.15 K [kg/m3] | mass density, 343.15 K [kg/m3] | mass density, 353.15 K [kg/m3] | thermal conductivity, 294.2 K [W/m/K] | thermal conductivity, 314.3 K [W/m/K] | thermal conductivity, 334.3 K [W/m/K]
100 kPa | 1111.2 | 1104.4 | 1097.6 | 1091.1 | 1084.4 | 1077.9 | 1071.6 | 0.16 | 0.16 | 0.158
5000 kPa | 1113.8 | 1107.1 | 1100.3 | 1093.9 | 1087.1 | 1080.7 | 1074.4 | – | – | –
10000 kPa | 1116.2 | 1109.6 | 1103 | 1096.6 | 1089.9 | 1083.6 | 1077.3 | 0.163 | 0.161 | 0.159
15000 kPa | 1118.6 | 1112.1 | 1105.4 | 1099 | 1092.6 | 1086.2 | 1080.1 | – | – | –
20000 kPa | 1120.9 | 1114.4 | 1107.8 | 1101.5 | 1095.2 | 1089 | 1083 | 0.165 | 0.164 | 0.161
